Laboratory results as given in patent publication EP4316461A1, “A PRESERVATIVE COMPOSITION” (BRAIN Biotech AG, priority 2022, dated 2024).

Key:
Experiment in all cases: Antimicrobial activity (MIC)
Type in all cases: cell-based
Enterococcus faecalis = conditions: Enterococcus faecalis, ATCC7080; Strain ID ATCC 7080; potato dextrose broth pH 3.8; read-out: Minimal Inhibitory Concentration (MIC)
Candida albicans = conditions: Candida albicans; Strain ID ATCC10231; potato dextrose broth pH 3.8; read-out: Minimal Inhibitory Concentration (MIC)
[1] = system: Brettanomyces naardenensis; conditions: Brettanomyces naardenensis, CBS6115; Strain ID CBS 6115; potato dextrose broth pH 3.8; read-out: Minimal Inhibitory Concentration (MIC)
Pseudomonas aeruginosa = conditions: Pseudomonas aeruginosa, DSM1117; Strain ID DSM 1117; potato dextrose broth pH 3.8; read-out: Minimal Inhibitory Concentration (MIC)
Malassezia furfur = conditions: Malassezia furfur, DSM6170; Strain ID DSM 6170; potato dextrose broth pH 3.8; read-out: Minimal Inhibitory Concentration (MIC)
[2] = system: Cladosporium cladosporioides; conditions: Cladosporium cladosporioides; Strain ID DSM19653; potato dextrose broth pH 3.8; read-out: Minimal Inhibitory Concentration (MIC)
[3] = system: Alicyclobacillus acidoterrestris; conditions: Alicyclobacillus acidoterrestris, DSM2498; Strain ID DSM 2498; potato dextrose broth pH 3.8; read-out: Minimal Inhibitory Concentration (MIC)
Corynebacterium xerosis = conditions: Corynebacterium xerosis, DSM20743; Strain ID DSM 20743; potato dextrose broth pH 3.8; read-out: Minimal Inhibitory Concentration (MIC)
Bacillus licheniformis = conditions: Bacillus licheniformis, DSM13; Strain ID DSM 13; potato dextrose broth pH 3.8; read-out: Minimal Inhibitory Concentration (MIC)
Zygosaccharomyces rouxii = conditions: Zygosaccharomyces rouxii, DSM7525; Strain ID DSM 7525; potato dextrose broth pH 3.8; read-out: Minimal Inhibitory Concentration (MIC)
Porphyromonas gingivalis = conditions: Porphyromonas gingivalis, DSM20709; Strain ID DSM 20709; potato dextrose broth pH 3.8; read-out: Minimal Inhibitory Concentration (MIC)
Bacillus cereus = conditions: Bacillus cereus; Strain ID DSM4490; potato dextrose broth pH 3.8; read-out: Minimal Inhibitory Concentration (MIC)
Leuconostoc lactis = conditions: Leuconostoc lactis, DSM20202; Strain ID DSM 20202; potato dextrose broth pH 3.8; read-out: Minimal Inhibitory Concentration (MIC)
Staphylococcus aureus = conditions: Staphylococcus aureus, DSM2569; Strain ID DSM 2569; potato dextrose broth pH 3.8; read-out: Minimal Inhibitory Concentration (MIC)
[4] = system: Salmonella enterica ssp. enterica Ser. typhimurium; conditions: Salmonella enterica, DSM 17058 / TYPHIMURIUM; Strain ID DSM 17058; potato dextrose broth pH 3.8; read-out: Minimal Inhibitory Concentration (MIC)
Botrytis cinerea = conditions: Botrytis cinerea, DSM5145; Strain ID DSM 5145; potato dextrose broth pH 3.8; read-out: Minimal Inhibitory Concentration (MIC)
Penicillium expansum = conditions: Penicillium expansum, DSM62841; Strain ID DSM 62841; potato dextrose broth pH 3.8; read-out: Minimal Inhibitory Concentration (MIC)
[5] = system: Pasteurella multocida ssp. multocida; conditions: Pasteurella multocida, DSM16031; Strain ID DSM 16031; potato dextrose broth pH 3.8; read-out: Minimal Inhibitory Concentration (MIC)
Listeria monocytogenes = conditions: Listeria monocytogenes, DSM20600; Strain ID DSM 20600; potato dextrose broth pH 3.8; read-out: Minimal Inhibitory Concentration (MIC)
Cutibacterium acnes = conditions: Cutibacterium acnes, DSM1897; Strain ID DSM 1897; potato dextrose broth pH 3.8; read-out: Minimal Inhibitory Concentration (MIC)
Enterobacter cloacae = conditions: Enterobacter cloacae, DSM6234; Strain ID DSM 6234; potato dextrose broth pH 3.8; read-out: Minimal Inhibitory Concentration (MIC)
Actinomyces viscosus = conditions: Actinomyces viscosus; Strain ID DSM43798; potato dextrose broth pH 3.8; read-out: Minimal Inhibitory Concentration (MIC)
[6] = system: Lactobacillus paracasei ssp. paracasei; conditions: Lacticaseibacillus paracasei, DSM46331; Strain ID DSM 46331; potato dextrose broth pH 3.8; read-out: Minimal Inhibitory Concentration (MIC)
[7] = system: Phanerochaete chrysosporium; conditions: Phanerodontia chrysosporium, DSM1556; Strain ID DSM 1556; potato dextrose broth pH 3.8; read-out: Minimal Inhibitory Concentration (MIC)
[8] = system: Fusobacterium nucleatum subsp. vincentii; conditions: Fusobacterium nucleatum, DSM19507; Strain ID DSM 19507; potato dextrose broth pH 3.8; read-out: Minimal Inhibitory Concentration (MIC)
Alternaria alternata = conditions: Alternaria alternata, DSM12633; Strain ID DSM 12633; potato dextrose broth pH 3.8; read-out: Minimal Inhibitory Concentration (MIC)
Zygosaccharomyces bailii = conditions: Zygosaccharomyces bailii, DSM70834; Strain ID DSM 70834; potato dextrose broth pH 3.8; read-out: Minimal Inhibitory Concentration (MIC)

Measured: MIC

C[C@@H]1O[C@@H](O[C@H]2[C@H](O[C@H]3CC[C@@]4(C)[C@@H](CC[C@]5(C)[C@@H]4CC=C4[C@@H]6CC(C)(C)CC[C@]6(C(=O)O)CC[C@]45C)[C@]3(C)CO)OC[C@H](O)[C@@H]2O)[C@H](O)[C@H](O[C@@H]2OC[C@@H](O)[C@H](O)[C@H]2O)[C@H]1O [A, Sapindoside B [30994-75-3]]
80 µg/mL: Leuconostoc lactis | [8]
500 µg/mL: Zygosaccharomyces rouxii
40 µg/mL: [3]
> 500 µg/mL: Penicillium expansum
> 80 µg/mL: all other assays above
